Experimental data: US4775674A, “Imidazoquinolinylether derivatives useful as phosphodiesterase and blood aggregation inhibitors” (Bristol-Myers Company, priority 1986, dated 1988)
Values after ≈ are worked out from the molar mass of the structure shown. Like-named read-outs stand apart in the source and are kept apart here.

What was measured:
[1] = tested on: adenosine diphosphate (ADP)-induced platelet aggregation; test: In vitro inhibition of platelet aggregation, ADP-induced (rabbit platelet rich plasma); assay type: cell-based; settings: Oryctolagus cuniculus, ADP 0.5 mcg/ml, read-out: Platelet Inhibition In Vitro - Rabbit PRP EC50 vs. ADP
Procedure: (§1) The aggregometer method of Born (1), as modified by Mustard, et al. (2) was used to assess the in vitro activity of the various compounds as to inhibition of adenosine diphosphate (ADP) and collagen-induced platelet aggregation. Platelet rich plasma (PRP) was separated by centrifugation from citrated (3.8 percent) rabbit blood. […] The various compounds tested were dissolved in dimethylsulfoxide (DMSO) so that 5 mcl added to the platelet rich plasma would yield the desired test concentration. Vehicle control trials were done and compared with aggregation induced in platelet rich plasma containing various concentrations of the test compounds. Dose response curves were obtained and Effective Concentration (EC50) values calculated.

[2] = target: T1, cAMP phosphodiesterase (human platelets) (Homo sapiens, UniProt Q14432); test: Inhibition of cyclic AMP phosphodiesterase; assay type: biochemical; settings: PDE from human platelets
T1 construct: enzynme obtained from human platelets; from tissue; host or cells: human platelets
T1 sequence (Q14432 whole entry): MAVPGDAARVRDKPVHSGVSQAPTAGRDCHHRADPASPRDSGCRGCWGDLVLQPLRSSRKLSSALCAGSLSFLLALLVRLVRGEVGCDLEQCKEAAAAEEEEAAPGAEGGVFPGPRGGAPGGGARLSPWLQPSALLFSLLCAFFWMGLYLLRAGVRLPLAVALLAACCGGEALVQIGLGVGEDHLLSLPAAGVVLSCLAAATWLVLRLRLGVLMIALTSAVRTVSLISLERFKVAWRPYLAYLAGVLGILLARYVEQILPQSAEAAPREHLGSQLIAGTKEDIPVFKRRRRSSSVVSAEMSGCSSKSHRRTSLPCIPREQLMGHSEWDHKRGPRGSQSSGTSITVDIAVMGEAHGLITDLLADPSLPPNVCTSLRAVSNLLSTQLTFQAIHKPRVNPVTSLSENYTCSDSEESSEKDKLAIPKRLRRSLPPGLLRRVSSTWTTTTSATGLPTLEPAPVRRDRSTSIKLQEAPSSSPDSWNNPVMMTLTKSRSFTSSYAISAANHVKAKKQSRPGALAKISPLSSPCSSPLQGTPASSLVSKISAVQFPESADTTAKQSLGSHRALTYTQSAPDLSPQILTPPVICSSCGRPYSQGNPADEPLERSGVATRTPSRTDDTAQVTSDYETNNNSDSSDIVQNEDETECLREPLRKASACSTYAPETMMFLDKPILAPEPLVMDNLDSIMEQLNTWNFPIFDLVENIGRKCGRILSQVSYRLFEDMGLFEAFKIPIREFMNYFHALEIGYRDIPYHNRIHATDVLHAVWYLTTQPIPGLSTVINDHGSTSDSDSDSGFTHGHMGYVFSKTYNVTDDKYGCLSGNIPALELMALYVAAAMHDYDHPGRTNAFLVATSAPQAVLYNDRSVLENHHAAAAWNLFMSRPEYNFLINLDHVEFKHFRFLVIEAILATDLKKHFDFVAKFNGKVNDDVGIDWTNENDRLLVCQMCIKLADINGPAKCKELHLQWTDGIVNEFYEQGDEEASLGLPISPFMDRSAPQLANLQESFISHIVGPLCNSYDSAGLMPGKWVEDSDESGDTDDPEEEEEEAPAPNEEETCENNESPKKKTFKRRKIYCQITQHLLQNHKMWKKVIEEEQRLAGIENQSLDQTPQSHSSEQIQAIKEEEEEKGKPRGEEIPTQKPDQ
Procedure: This assay is carried out essentially as described by Thompson, et al., Methods in Enzymology, 38, 205-212 (1974). Briefly, tritium labeled cyclic adenosine monophosphate (cAMP) is incubated with a phosphodiesterase (PDE) enzynme obtained from human platelets which converts a portion of the cAMP to 5'AMP in culture tubes. This reaction is terminated by submerging the tubes in a boiling water bath after which they are placed on ice and an aliquot of snake venom is added to each tube. This, during a second incubation, converts the 5'AMP to adenosine. Ion exchange resin is added to bind the remaining cyclic AMP. The tubes are centrifuged to sediment the resin and a portion of the clear supernatent (which contains radioactive adenosine) is counted in a liquid scintillation counter. The cAMP phosphodiesterase inhibition activity of a test agent is determined by pre-incubating the PDE enzyme preparation with the test agent.

[3] = tested on: collagen-induced platelet aggregation; test: In vitro inhibition of platelet aggregation, collagen-induced (rabbit platelet rich plasma); assay type: cell-based; settings: Oryctolagus cuniculus, collagen suspension 0.05 ml, read-out: Platelet Inhibition In Vitro - Rabbit PRP EC50 vs. collagen
Procedure: as §1

[4] = tested on: ferrets (right ventricular contractile force, blood pressure); test: In vivo inotropic activity in ferrets; design: species or system ferret; settings: Mustela putorius, intraduodenal, 1 h
Procedure: This test is carried out in ferrets as follows. Fasted anesthetized ferrets are instrumented to study hemodynamic parameters as well as right ventricular contractile force (RVCF) using a Walton-Brodie open strain guage arch. Drugs are administered intraduodenally as solutions in DMSO (1 mL or less) and effects on myocardial contractile force and other parameters are monitored for 60 minutes after dosing. Changes in contractile force in response to drug treatment are expressed in terms of percent change from predose control.

[5] = tested on: platelet aggregation (Ex Vivo vs. ADP); test: Inhibition of platelet aggregation following oral administration (Ex vivo); assay type: in vivo; settings: Rattus norvegicus, rats, oral by gavage, 2 hours after dosing
Procedure: This test is sometimes referred to in the art as an Ex vivo method and was initially described by Fleming, et al., Arch. Int. Pharmacodyn. Ther., 199, 164 (1972). Briefly, the assay is essentially carried out as follows.
Aggregometry is performed in vitro as previously described on platelet rich plasma samples obtained from rats dosed with either test compounds or the vehicle. In all cases, activity is determined 2 hours after the drug is administered orally at various doses by gavage as a suspension in […] plus a few drops of Tween 20.

[6] = anesthetized ferret, 3 mg/kg, 60 minutes, vs predose control, read-out: Maximum Percentage Change Right Ventricular Contractile Force (RVCF)
[7] = anesthetized ferret, 3 mg/kg, 60 minutes, read-out: Maximum Percentage Change Blood Pressure

SMILES | EC50 [1] [µg/mL] | IC50 [2] [nM] | EC50 [3] [µg/mL] | change in vivo at 3 mg/kg [4, 6] [%] | change in vivo at 3 mg/kg [4, 7] [%] | other results
COC(=O)CCCCOc1ccc2nc3nc(O)n(C)c3cc2c1 [Example 14, Methyl 5-[(2,3-Dihydro-1-methyl-2-oxo 1H-imidazo[4,5-b]quinolin-7-yl)oxy]pentanoate] | 3 (≈ 9.11 µM) | 5000 | – | – | – | –
Oc1nc2cc3cc(OCCCCc4nnnn4C4CCCCC4)ccc3[nH]c-2n1 [Example 36, 7-[4-(1-Cyclohexyl-1H-tetrazol-5-yl)butoxy]-1,3-dihydro-2H-imidazo[4,5-b]quinolin-2-one] | – | 4 | 0.02 (≈ 0.0491 µM) | – | – | –
Cc1[nH]c(=O)c(C#N)cc1-c1ccncc1 [milrinone, reference compound] | – | – | – | – | – | change in vivo at 3 mg/kg ([4]; read-out: Maximum Percentage Change Right Ventricular Contractile Force (RVCF)): 52%
O=C(CCCOc1ccc2nc3[nH]c(=O)[nH]c3cc2c1)N1CCN(c2ccccc2)CC1 [Example 26, 1-[4-[(2,3-Dihydro-2-oxo-1H-imidazo[4,5-b]quinolin-7-yl)oxy]-1-oxobutyl]-4-phenylpiperazine] | 0.125 (≈ 0.29 µM) | 2 | 0.009 (≈ 0.0209 µM) | – | – | –
O=C(CCCOc1ccc2nc3[nH]c(=O)[nH]c3cc2c1)N1CCCCC1 [Example 24, 1-[4-[(2,3-Dihydro-2-oxo-1H-imidazo[4,5-b]quinolin-7-yl)oxy]-1-oxobutyl]piperidine] | 0.04 (≈ 0.113 µM) | 20 | – | 32 | -19 | –
CN(C(=O)CCCCOc1ccc2nc3[nH]c(=O)n(C)c3cc2c1)C1CCCCCC1 [Example 28, N-Cycloheptyl-5-[(2,3-dihydro-1-methyl-2-oxo-1H-imidazo[4,5-b]quinolin-7-yl)oxy]-N-methylpentanamide] | 0.06 (≈ 0.141 µM) | 600 | – | 27 | -12 | –
OCCN(CCO)c1nc(N2CCCCC2)c2nc(N(CCO)CCO)nc(N3CCCCC3)c2n1 [dipyridamole, reference compound] | > 512 | – | – | – | – | ED50 [5]: > 100 mg/kg
CCN(CC)CCOc1ccc2nc3[nH]c(=O)[nH]c3cc2c1 [Example 34, 7-[(2-Diethylamino)ethoxy]-1,3-dihydro-2H-imidazo[4,5-b]quinolin-2-one] | 1.5 (≈ 4.99 µM) | – | 0.4 (≈ 1.33 µM) | – | – | –
CC(C)NCC(O)COc1ccc2nc3[nH]c(=O)[nH]c3cc2c1 (stereo not shown) [Example 43, 1,3-Dihydro-7-[2-hydroxy-3-[(1-methylethyl)amino]propoxy]-2H-imidazo[4,5-b]quinolin-2-one] | > 32 | 300 | > 32 | – | – | –
CC(C)N1CC(COc2ccc3nc4[nH]c(=O)[nH]c4cc3c2)OC1=O (stereo not shown) [Example 41, 1,3-Dihydro-7-[[3-(1-methylethyl)-2-oxo-5-oxazolidinyl]methoxy]-2H-imidazo[4,5-b]quinolin-2-one] | 3 (≈ 8.76 µM) | 60 | 7 (≈ 20.4 µM) | – | – | –
CN(C(=O)CCCCOc1ccc2nc3nc(O)n(C)c3cc2c1)C1CCCCC1 [Example 27, N-Cyclohexyl-5-[(2,3-dihydro-1-methyl-2-oxo-1H-imidazo[4,5-b]quinolin-7-yl)oxy]N-methylpentanamide] | 0.06 (≈ 0.146 µM) | 500 | – | 35 | -24 | –
Cn1c(=O)[nH]c2nc3ccc(OCCCC(=O)NC4CCCCC4)cc3cc21 [Example 19, N-Cyclohexyl-4-[(2,3-dihydro-1-methyl-2-oxo 1H-imidazo[4,5-b]quinolin-7-yl)oxy]butanamide] | 0.07 (≈ 0.183 µM) | 700 | 0.009 (≈ 0.0235 µM) | – | – | ED50 [5]: 8.3 mg/kg
CCOC(=O)COc1ccc2nc3[nH]c(=O)[nH]c3cc2c1 [Example 12, Ethyl [(2,3-Dihydro-2-oxo-1H-imidazo[4,5-b]quinolin-7-yl)oxy]acetate] | 8 (≈ 27.8 µM) | – | 2.5 (≈ 8.7 µM) | – | – | –
O=C(O)CCCOc1ccc2nc3[nH]c(=O)[nH]c3cc2c1 [Example 4, 4-[(2,3-Dihydro-2-oxo-1H-imidazo[4,5-b]quinolin-7-yl)oxy]butanoic Acid] | – | – | – | 3 ± 5 | -3 ± 2 | ED50 [5]: 3.4 mg/kg
Cn1c(=O)[nH]c2nc3ccc(OCCCC(=O)O)cc3cc21 [Example 6, 4-[(2,3-Dihydro-1-methyl-2-oxo-1H-imidazo[4,5-b]quinolin-7-yl)oxy]butanoic Acid] | > 32 | 600 | > 32 | – | – | –
O=c1[nH]c2cc3cc(OCCCCS(=O)(=O)c4ccccc4)ccc3nc2[nH]1 [Example 35, 7-[4-(Phenylsulfonyl)butoxy]-1,3-dihydro-2H-imidazo[4,5-b]quinolin-2-one] | 0.07 (≈ 0.176 µM) | 1 | – | 11 ± 5 | -10 ± 8 | ED50 [5]: 4.3 mg/kg
COC(=O)CCCOc1ccc2nc3[nH]c(=O)n(C)c3cc2c1 [Example 11, Methyl 4-[(2,3-Dihydro-1-methyl-2-oxo-1H-imidazo[4,5-b]quinolin-7-yl)oxy]butanoat] | – | – | – | -10 | -4 | ED50 [5]: 15.7 mg/kg
O=C(O)CCCCOc1ccc2nc3[nH]c(=O)[nH]c3cc2c1 [Example 8, 5-[(2,3-Dihydro-2-oxo-1H-imidazo[4,5-b]quinolin-7-yl)oxy]pentanoic Acid] | > 32 | – | > 32 | – | – | –
COC(=O)CCCCOc1ccc2nc3[nH]c(=O)[nH]c3cc2c1 [Example 13, Methyl 5-[(2,3-Dihydro-2-oxo-1H-imidazo[4,5-b]quinolin-7-yl)oxy]pentanoate] | 0.3 (≈ 0.951 µM) | – | – | – | – | –
CN(C(=O)CCCOc1ccc2nc3nc(O)n(C)c3cc2c1)C1CCCCCC1 [Example 23, N-Cycloheptyl-4-[(2,3-dihydro-1-methyl-2-oxo-1H-imidazo[4,5-b]quinolin-7-yl)oxy]-N-methylbutanamide] | 0.03 (≈ 0.0731 µM) | 30000 | 0.005 (≈ 0.0122 µM) | 24 | -16 | –
Cn1c(=O)[nH]c2nc3ccc(OCCCC(=O)N4CCCCC4)cc3cc21 [Example 25, 1-[4-[(2,3-Dihydro-1-methyl-2-oxo-1H-imidazo[4,5-b]quinolin-7-yl)oxy]-1-oxobutyl]piperidine] | 4 (≈ 10.9 µM) | – | 0.8 (≈ 2.17 µM) | – | – | –
CC(C)(C)N1CC(COc2ccc3nc4[nH]c(=O)[nH]c4cc3c2)OC1=O (stereo not shown) [Example 42, 7-[[3-(1,1-Dimethylethyl)-2-oxooxazolidin-5-yl]methoxy]-1H-imidazo[4,5-b]quinolin-2(3H)-one] | 6 (≈ 16.8 µM) | 70 | 0.4 (≈ 1.12 µM) | – | – | –
O=C(O)COc1ccc2[nH]c3nc(O)nc-3cc2c1 [Example 7, 2-[(1,3-Dihydro-2-oxo-2H-imidazo[4,5-b]quinolin-7-yl)oxy]acetic Acid] | – | 70 | – | – | – | –
O=C(CCCOc1ccc2nc3[nH]c(=O)[nH]c3cc2c1)NC1CCCCC1 [Example 18, N-Cyclohexyl-4-[(2,3-dihydro-2-oxo-1H-imidazo[4,5-b]quinolin-7-yl)oxy]butanamide] | 0.015 (≈ 0.0407 µM) | – | 0.0025 (≈ 0.00679 µM) | 5 | -8 | –
Cn1c(O)nc2nc3ccc(OCCCCC(=O)O)cc3cc21 [Example 9, 5-[(2,3-Dihydro-1-methyl-2-oxo-1H-imidazo[4,5-b]quinolin-7-yl)oxy]pentanoicAcid] | > 32 | 800 | > 32 | – | – | –
CN(C(=O)CCCOc1ccc2nc3[nH]c(=O)[nH]c3cc2c1)C1CCCCCC1 [Example 22, N-Cycloheptyl-N-methyl-4-[(2,3-dihydro-2-oxo-1H-imidazo[4,5-b]quinolin-7-yl)oxy]butanamide] | 0.007 (≈ 0.0177 µM) | – | 0.002 (≈ 0.00504 µM) | – | – | ED50 [5]: 6.2 mg/kg; change in vivo at 0.3 mg/kg ([4]; anesthetized ferret, 60 minutes, vs predose control, read-out: Maximum Percentage Change Right Ventricular Contractile Force (RVCF)): 29 ± 5%; change in vivo at 0.3 mg/kg ([4]; anesthetized ferret, 60 minutes, read-out: Maximum Percentage Change Blood Pressure): -26 ± 4%
O=C(CCCOc1ccc2nc3[nH]c(=O)[nH]c3cc2c1)N1CCOCC1 [Example 15] | – | – | 0.007 (≈ 0.0196 µM) | 2 | -5 | –
